{
  "source": "patent US20070093520A1",
  "about": "“Method of treatment of diarrhea-predominant irritable bowel syndrome in a subject” (priority 2005, published 2007)",
  "key": {"[1]": {"tested_on": "diarrhea-predominant IBS subjects", "test": "3008 Study: 12-lead ECG abnormalities", "type": "in vivo, human", "settings": "3007 Study", "experimental": "Resting 12-lead ECGs were performed at Day 1 (Visit 5 of the core protocol), Months 1, 6, and 12 (end of study or early termination visit). A centralized ECG service was used to evaluate all ECG tracings to supply consistent standardized ECG interpretation.\nFor by-visit assessments, visit windows were assigned to the post-Baseline assessments as follows (vital signs, laboratory tests, and ECGs):\nAll analyses and summaries for ECG assessments were based on the evaluation performed in the central ECG laboratory.\nSummary statistics are presented for PR, QRS, QT, and QTc intervals (Bazett and Fridericia formulas) and heart rate at each visit and at Endpoint, as well as for change from Baseline results at each post-Baseline visit and at Endpoint. Bazett's and Fridericia's QTc intervals were calculated based on the following formulas: Bazett: QTc intervals=QT/√RR Fridericia: QTc intervals=QT/^3√RR\nMarkedly abnormal ECG parameter values collected after the first dose of study medication and within 30 days of the last dose of study medication were summarized overall. The following criteria were applied to identify markedly abnormal parameter values: • PR ≧0.210 sec; • QRS ≧0.120 sec; • QTc >0.440 sec;\nThe incidence of treatment-emergent ECG abnormalities is presented overall and by type of abnormality. A treatment-emergent ECG abnormality was an abnormality identified by the ECG core laboratory that was not present at baseline (e.g., prior to the entry into core Study 3006), and was observed on or after initiation of study medication and up to 30 days after discontinuation of study medication. The incidence of treatment-emergent ECG abnormalities is presented by time interval, as well as overall for the entire treatment period. The incidence of treatment-emergent abnormalities is also presented in more general categories (e.g., presenting incidence of treatment-emergent myocardial infarction overall as well as by location), depending on whether it mitigates the interpretation."}, "[2]": {"tested_on": "subjects with ROME II defined IBS-D", "test": "5050 Study: IBS-QoL survey", "type": "in vivo, human", "set-up": "IBS-QoL subscale score: Interference with activity / IBS-QoL subscale score: Food avoidance / IBS-QoL subscale score: Sexual / IBS-QoL subscale score: Health Worry / IBS-QoL subscale score: Relationship / IBS-QoL subscale score: Body Image / IBS-QoL subscale score: Social Reaction / IBS-QoL subscale score: Dysphoria: scale not given here", "settings": "Study 5050", "experimental": "The 5050 Study was a double-blind, randomized, placebo-controlled study to evaluate the long-term safety and tolerability of cilansetron 2 mg taken on an as needed (prn) basis for 1 year by male and female subjects with ROME II defined IBS-D. The study was performed in 68 centers. Patients were randomized in a 3:1 ratio to receive either cilansetron 2 mg prn or placebo, up to 3 times a day. Safety parameters were explored by comparing the double-blind groups, average daily doses and treatment exposure. Patient visits were scheduled as follows: Visit 1 (pretreatment), Visit 2 (Day 1), Visit 3 (Month 1), Visit 4 (Month 3), Visit 5 (Month 6), Visit 6 (Month 9), and Visit 7 (Month 12). Safety assessments included: adverse events (AEs)/serious adverse events (SAES); laboratory parameters (pretreatment visit and at Months 1, 6, and 12); electrocardiograms (pretreatment visit and at Months 1, 6, and 12); vital signs (at each visit); physical examinations and body weight (pretreatment visit and at Month 12); prior and concomitant medication use (each visit and/or through spontaneous reporting); stool cards for occult blood (every visit except Visit 1). The number of tablets taken per day was recorded daily through a validated interactive voice response system. Patients who met the ROME criteria for IBS and ROME II criteria for the diarrhea predominant subpopulation were included in the study. Patients with acute colitis of any etiology, history of chronic colitis of any etiology, or a history of intestinal obstruction, stricture, toxic megacolon, gastrointestinal (GI) perforation, or fecal impaction were excluded from the study.\nSubjects were asked to complete a IBS-QOL Survey at Day 1 (Visit 5 of the core protocol), Month 6 and Month 12 (end of study or early termination) in order to assess possible changes of their QOL. The IBS-QoL survey, a 34 item IBS-specific QoL questionnaire consisting of 8 subscales (i.e., interference with activity; body image; health worry; food avoidance; social reaction; sexual; relationship; and dysphoria) was completed by patients at baseline and at later specified time points (e.g., at week 12 and at week 16 in Study 5050)."}, "[3]": {"settings": "Table 10.5, time point not stated"}},
  "data": [
    {"smiles": "Cc1nccn1C[C@H]1CCc2c(c3cccc4c3n2CCC4)C1=O", "note": "[cilansetron, (R)-(−)-4,5,6,8,9,10-hexahydro-10-[(2-methyl-1H-imidazol-1-yl)methyl]-11H-pyrido-[3,2,1-jk]-carbazol-11-one]", "values": [
      {"measurement": "ECG abnormality: early-repolarization-normal variant", "setting": "[1]", "value": "> 10", "unit": "%"},
      {"measurement": "ECG abnormality: sinus arrhythmia", "setting": "[1]", "value": "> 10", "unit": "%"},
      {"measurement": "ECG abnormality: sinus bradycardia", "setting": "[1]", "value": "> 10", "unit": "%"},
      {"measurement": "incidence of treatment-emergent markedly abnormal QTc(F)", "setting": "[1]; 30 subjects", "value": 2, "unit": "%"},
      {"measurement": "incidence of treatment-emergent markedly abnormal QTc(B)", "setting": "[1]; 105 subjects", "value": 8, "unit": "%"},
      {"measurement": "IBS-QoL subscale score: Body Image", "setting": "[2]; [3]", "value": 61.7},
      {"measurement": "IBS-QoL subscale score: Dysphoria", "setting": "[2]; [3]", "value": 47.4},
      {"measurement": "IBS-QoL subscale score: Food avoidance", "setting": "[2]; [3]", "value": 38.3},
      {"measurement": "IBS-QoL subscale score: Health Worry", "setting": "[2]; [3]", "value": 65.3},
      {"measurement": "IBS-QoL subscale score: Interference with activity", "setting": "[2]; [3]", "value": 41.1},
      {"measurement": "IBS-QoL subscale score: Relationship", "setting": "[2]; [3]", "value": 62.5},
      {"measurement": "IBS-QoL subscale score: Sexual", "setting": "[2]; [3]", "value": 72.2},
      {"measurement": "IBS-QoL subscale score: Social Reaction", "setting": "[2]; [3]", "value": 58.3},
      {"measurement": "change from baseline of IBS-QoL total score, interference with activity, body image, sexual score and dysphoria", "setting": "[2]; p<0.050", "value": "significant improvement"}
    ]}
  ]
}
